Reference: article PMC9763333, “In vitro characterization of immune modulating drug-eluting immunobeads towards transarterial embolization in cancer” (Scientific Reports, 2022)
Several values for one entry are separate records, joined by “and”; a condition that tells them apart may be missing. Equal entries are not always repeated. Entries after “also recorded” stand apart in the source; their conditions may differ.

Tests used:
[1] = Drug solubilization by salt formation in acid; type: physicochemical
In short: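 Drug base suspended in water and titrated with 0.1 N HCl until dissolved, at a final 2.5 mg/mL; solution lyophilized to the hydrochloride salt or used directly for DC Bead LUMI loading. GS-9620 and its decomposition product analyzed by C8 reversed-phase HPLC (UV 230 nm) and LC/MS.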

[2] = Drug loading into DC Bead LUMI; type: physicochemical
In short: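 Loading done in triplicate; amount loaded = initial drug in loading solution minus drug remaining and cumulative drug withdrawn for sampling. Maximum loading taken when loading-solution concentration stopped changing, before washing; relative % loading expressed on a molar basis against available SO3^- ions, mean ± SD.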

[3] = Drug release from DC Bead LUMI in saline; type: physicochemical; settings: for percent drug eluted from DC Bead LUMI / drug eluted from DC Bead LUMI: saline, single replicates; for percent drug eluted from DC Bead LUMI: percent of drug loaded
In short: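 Beads loaded with drug (62.5 µL of DC Bead LUMI) were placed in 50 mL of saline (0.9 mg/mL, pH 7.4) and rocked upright at 37 °C at speed setting 10 (70 rpm). At each sampling time, 1 mL of medium was taken for drug quantification and replaced with 1 mL of fresh saline pre-warmed to 37 °C. Cumulative release accounted for drug removed in earlier samples, and the 50 mL volume kept sink conditions.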

[4] = cited from earlier work

## COc1nc(OCc2cccc(-c3ccccc3)c2C)ccc1CNCCNC(C)=O [BMS-202]
[1]; 0.1 N HCl, deionized water
  solubilization upon addition of 0.1 N HCl: did not solubilize
[1]; T in °C in parentheses in the cell (20.1 or 21.1)
  pH at which each drug dissolved for loading: 2.11 (20.1)
[2]; 5 min, single replicates
  Relative percent drug loaded in DC Bead LUMI over time: 36.8467% and 31.5632% and 21.322%
[2]; 15 min, single replicates
  Relative percent drug loaded in DC Bead LUMI over time: 30.3231% and 39.2476% and 47.138%
[2]; 30 min, single replicates
  Relative percent drug loaded in DC Bead LUMI over time: 47.9681% and 46.426% and 44.5676%
[2]; 45 min, single replicates
  Relative percent drug loaded in DC Bead LUMI over time: 56.9526% and 51.0915% and 54.8687%
[2]; 60 min, single replicates
  Relative percent drug loaded in DC Bead LUMI over time: 63.8406% and 58.0947% and 63.6687%
[2]; 120 min, single replicates
  Relative percent drug loaded in DC Bead LUMI over time: 85.531% and 84.4265% and 85.0145%
[2]; 180 min, single replicates
  Relative percent drug loaded in DC Bead LUMI over time: 98.296% and 98.7957% and 94.8002%
[2]; 240 min, single replicates
  Relative percent drug loaded in DC Bead LUMI over time: 106.342% and 112.145% and 106.321%
[2]; 300 min, single replicates
  Relative percent drug loaded in DC Bead LUMI over time: 111.107% and 116.727% and 112.613%
[2]; 360 min, single replicates
  Relative percent drug loaded in DC Bead LUMI over time: 115.109% and 120.479% and 108.292%
[2]; 420 min, single replicates
  Relative percent drug loaded in DC Bead LUMI over time: 117.263% and 122.293% and 119.836%
[2]; 480 min, single replicates
  Relative percent drug loaded in DC Bead LUMI over time: 118.462% and 124.442% and 121.713%
[2]; 1440 min, single replicates
  Relative percent drug loaded in DC Bead LUMI over time: 121.282% and 124.78% and 117.021%
[2]; 2880 min, single replicates
  Relative percent drug loaded in DC Bead LUMI over time: 119.234% and 124.78% and 122.668%
[2]; 4320 min, single replicates
  Relative percent drug loaded in DC Bead LUMI over time: 118.18% and 124.96% and 121.21%
[2]; 8640 min, single replicates
  Relative percent drug loaded in DC Bead LUMI over time: 119.5% and 124.96% and 122.329%
[2]; DC Bead LUMI
  drug loaded above the predicted capacity of the bead: approximately 23%
  loading behaviour: slower loading
[2]; DC Bead LUMI, mean (n = 3), listed as BMS-200
  Relative percent drug loaded (maximum, percent of SO3− available on a molar basis): 122.93%
[2]; DC Bead LUMI, mean ± SD
  equivalent of drug loaded to sulfonated bead: 0.35 ± 0.01 mM drug/ml beads
[2]; DC Bead LUMI, mean ± SD, n = 3, base form except Dox (salt form)
  Maximum drug loaded: 148.05 ± 2.24 mg drug/ml beads
[2]; DC Bead LUMI, single replicates, listed as BMS-200
  Maximum drug loaded (Triplicate), %: 121.282% and 124.83% and 122.668%
[2]; molar ratio at maximum loading, DC Bead LUMI
  Drug: sulfonate: 1.223
[2]; per mL DC Bead LUMI, assuming 1:1 drug to sulfonate
  Theoretical maximum loading level based on SO3− contents: 120.40 mg and 120.4 mg
[3]; 5 min
  percent drug eluted from DC Bead LUMI: 2.472% and 2.4176% and 2.385%
  drug eluted from DC Bead LUMI: 8.513 µmol and 8.629 µmol and 8.378 µmol
[3]; 15 min
  percent drug eluted from DC Bead LUMI: 2.589% and 2.639% and 2.416%
  drug eluted from DC Bead LUMI: 8.915 µmol and 9.4174 µmol and 8.488 µmol
[3]; 30 min
  percent drug eluted from DC Bead LUMI: 2.762% and 2.728% and 2.934%
  drug eluted from DC Bead LUMI: 9.513 µmol and 9.737 µmol and 10.3104 µmol
[3]; 45 min
  percent drug eluted from DC Bead LUMI: 3.33% and 2.98% and 3.1337%
  drug eluted from DC Bead LUMI: 11.4676 µmol and 10.637 µmol and 11.0105 µmol
[3]; 60 min
  percent drug eluted from DC Bead LUMI: 3.248% and 3.3497% and 3.385%
  drug eluted from DC Bead LUMI: 11.1858 µmol and 11.9555 µmol and 11.8939 µmol
[3]; 120 min
  percent drug eluted from DC Bead LUMI: 4.556% and 3.526% and 4.046%
  drug eluted from DC Bead LUMI: 15.688 µmol and 12.584 µmol and 14.2155 µmol
[3]; 180 min
  percent drug eluted from DC Bead LUMI: 5.055% and 4.61% and 4.461%
  drug eluted from DC Bead LUMI: 17.4074 µmol and 16.4551 µmol and 15.6742 µmol
[3]; 240 min
  percent drug eluted from DC Bead LUMI: 5.272% and 4.993% and 5.201%
  drug eluted from DC Bead LUMI: 18.1541 µmol and 17.8191 µmol and 18.2734 µmol
[3]; 300 min
  percent drug eluted from DC Bead LUMI: 5.575% and 5.37% and 5.345%
  drug eluted from DC Bead LUMI: 19.198 µmol and 19.1657 µmol and 18.7818 µmol
[3]; 360 min
  percent drug eluted from DC Bead LUMI: 6.559% and 5.753% and 6.275%
  drug eluted from DC Bead LUMI: 22.5859 µmol and 20.5327 µmol and 22.0468 µmol
[3]; 420 min
  percent drug eluted from DC Bead LUMI: 6.666% and 5.904% and 7.0124%
  drug eluted from DC Bead LUMI: 22.954 µmol and 21.073 µmol and 24.6387 µmol
[3]; 480 min
  percent drug eluted from DC Bead LUMI: 7.32% and 7.2% and 7.286%
  drug eluted from DC Bead LUMI: 25.2083 µmol and 25.6984 µmol and 25.5995 µmol
[3]; 1440 min
  percent drug eluted from DC Bead LUMI: 11.7204% and 10.5374% and 10.9377%
  drug eluted from DC Bead LUMI: 40.3605 µmol and 37.6096 µmol and 38.4305 µmol
[3]; 2880 min
  percent drug eluted from DC Bead LUMI: 14.9312% and 14.241% and 13.8435%
  drug eluted from DC Bead LUMI: 51.4172 µmol and 50.828 µmol and 48.6405 µmol
[3]; 4320 min
  percent drug eluted from DC Bead LUMI: 16.6252% and 15.679% and 15.9706%
  drug eluted from DC Bead LUMI: 57.2509 µmol and 55.9606 µmol and 56.1142 µmol
[3]; 8640 min
  percent drug eluted from DC Bead LUMI: 17.1401% and 16.2829% and 16.6995%
  drug eluted from DC Bead LUMI: 59.0238 µmol and 58.1158 µmol and 58.6753 µmol
[3]; DC Bead LUMI
  release behaviour in saline: slow release; also recorded: prolonged release profile
[4]
  pKa (literature): 7.74 (literature) [54]
